According to US20150306081A1, “Chemotherapy for Drug-Resistant Cancer Cells” (THE UNIVERSITY OF SYDNEY, priority 2012, published 2015):

Assays:
[1] = test system: Pgp-expressing KBV1 cells; assay: Uptake of radio-labeled drug, KBV1 cells; type: cell-based, Human
Procedure: Cells were then washed on ice three times with ice-cold PBS and collected for analysis. Drug uptake was calculated as the number of drug molecules/cell. […] For studies using lysosomotropic agents, cells were pre-incubated with NH4Cl (5 mM), CLQ (100 μM) or MA (100 μM) for 30 min/37° C. prior to ^14C-Dp44mT uptake. […] For efflux assays, the same labeling procedure was conducted as in the uptake assay. […] After this procedure, the overlying media was removed using a Pasteur pipette and then placed in a counting vial. The cells were removed from the plate in 1 mL of PBS and then dispensed into a separate counting vial.

[2] = test system: non-Pgp expressing KB31 cells; assay: Uptake of radio-labeled drug, KB31 cells; type: cell-based, Human
Procedure: For the uptake assay, each 35 mm culture dish containing 5×10^5 cells was incubated with ^14C-doxorubicin, ^3H-vinblastine or ^14C-Dp44mT (all at 1 μCi) for 30 min/37° C. Cells were then washed on ice three times with ice-cold PBS and collected for analysis. Drug uptake was calculated as the number of drug molecules/cell. […] For studies using lysosomotropic agents, cells were pre-incubated with NH4Cl (5 mM), CLQ (100 μM) or MA (100 μM) for 30 min/37° C. prior to ^14C-Dp44mT uptake. […] For efflux assays, the same labeling procedure was conducted as in the uptake assay. […] After this procedure, the overlying media was removed using a Pasteur pipette and then placed in a counting vial. The cells were removed from the plate in 1 mL of PBS and then dispensed into a separate counting vial. The radiolabeled-drug efflux was calculated as a percentage of the total drug uptake by the cells found at zero time.

[3] = test system: KBV1 cells; assay: Lysosomal integrity, acridine orange flow cytometry, KBV1 cells; type: cell-based, Human
Procedure: Lysotracker® red (Life Technologies) and acridine orange (Sigma-Aldrich) are dyes showing high specificity for lysosomes and were used to determine lysosomal membrane permeability (LMP). The Lysotracker® red was visually assessed by fluorescence microscopy utilizing a Zeiss Axio Observer.Z1 Fluorescence Microscope equipped with an AxioCam camera (Zeiss, Oberkochen, Germany) and acridine orange was quantified by flow cytometry (see below).
Briefly, cells were incubated with Lysotracker® red (50 nM) for 15 min/37° C. or acridine orange (20 nM) for 15 min/37° C., washed on ice 3 times with ice-cold PBS and then incubated with Cu[Dp44mT] (25 μM) for 30 min/37° C. or Dp44mT alone (25 μM) for 30 min or 24 h/37° C.
The dyes, Rh123 and acridine orange were detected with the FACS Canto flow cytometer (BD Biosciences) and 10,000 events were acquired for every sample. Data analysis was performed using FlowJo software, version 7.5.5 (Tree Star Inc., Ashland, OR).

[4] = test system: Pgp-expressing KBV1 cells; conditions: previously reported (ref. 5); cited from earlier work

Compound: CN(C)C(=S)NN=C(c1ccccn1)c1ccccn1 [Dp44mT, di-2-pyridylketone 4,4-dimethyl-3-thiosemicarbazone]
- accumulation after pre-treatment with lysosomotropic agents ([1]; KBV1 cells, NH4Cl, MA or CLQ pre-incubation 30 min/37° C.): significantly (p<0.001) decreased
- effect of Pgp inhibitors Val and Ela on uptake ([1]; KBV1 cells, Val 1 μM or Ela 0.1 μM pre-incubation, versus control): significantly (p<0.001) increased the uptake
- cellular accumulation in KBV1 cells relative to KB31 cells ([1]; control groups, 1 μCi): significantly (p<0.001) less
- accumulation after pre-treatment with lysosomotropic agents ([2]; NH4Cl, MA or CLQ pre-incubation): did not significantly affect
- effect of Pgp inhibitors Val and Ela on uptake ([2]; Val 1 μM or Ela 0.1 μM pre-incubation, versus control): did not significantly alter radiolabel uptake
- lysosomal integrity (acridine orange) ([3]; 30 min incubation): did not compromise lysosomal integrity
- lysosomal integrity (acridine orange) ([3]; KBV1 cells, 25 μM, 24 h): decreased lysosomal integrity
- lysosomal damage in presence of Val ([3]; KBV1 cells, 24 h, with Pgp inhibitor Val): significantly (p<0.01) reduced lysosomal damage
- cytotoxicity to KBV1 cells relative to KB31 cells [4]: increased cytotoxicity
